According to patent publication US20220107317A1, “COMPOSITIONS AND METHODS FOR DIAGNOSING AND TREATING CORONAVIRUS DISEASE 2019” (priority 2020, published 2022):

Target: SARS-CoV-2 spike protein RBD (Severe acute respiratory syndrome coronavirus 2, UniProt P0DTC2)
Conditions: spike protein RBD and dimer of spike protein RBD, FIG. 4

## DLSGFVRPDPVIISSPLSTFFSDAGYKSLLKITMTQSTVPLNLIRVHLMVAVEG HLFQKSFQASPNLAYTFIWDKTDAYGQRVYGLSDAVVSVGFEYETCPSLILW EKRTALLQGFELD [T2 peptide]
  binding in Western blot: binding between T2 peptide to both spike protein RBD and the dimer of spike protein RBD
